Source: patent US5985824A, “Methods and compositions for treating cystic fibrosis” (priority 1997, dated 1999)
“Also recorded” adds a separate entry of the source. Read-outs that look alike come from different tables or passages of the source.

Tests used:
hsc70 (hsp70) = conditions: cited from earlier work
[1] = system: ΔF508-CFTR (LLCPK1-ΔF508 cells); test: SPQ assay, cAMP-stimulated Cl- channel activity, LLCPK1-ΔF508 cells; type: cell-based
Method: The cAMP-dependent CFTR Cl^- channel activity was assessed using the halide-sensitive fluorophore 6-methoxy-N-(3-sulfopropyl)-quinolinium (SPQ) essentially as described previously (Cheng et al., (1995), supra.; Marshall et al., supra.). Briefly, the cells were treated with different amounts of DSG for the times specified. At the end of the treatment period, the cells were loaded with SPQ by hypotonic shock for 4 min at room temperature. SPQ fluorescence initially was quenched by incubating the cells for up to 30 min in a NaI buffer (135 mM NaI, 2.4 mM K2 HPO4, 0.6 mM KH2 PO4, 1 mM MgSO4, 1 mM CaSO4, 10 mM dextrose, and 10 mM N-2 hydroxyethylpiperazine-N'2-ethanesulfonic acid, pH 7.4). After measuring the baseline fluorescence (Fo) for 2 min., the NaI solution was replaced with one containing 135 mM NaNO3, and fluorescence was measured for another 16 min. […]
An increase in halide permeability is reflected by a more rapid increase in SPQ fluorescence. […] Differences in absolute levels reflect quantitative differences between groups in SPQ loading, size of cells, or number of cells studied. The data are presented as means± SE of fluorescence at time t (Ft) minus the baseline fluorescence (Fo, the average fluorescence measured in the presence of I^- for 2 min. before ion substitution) and are representative of results obtained under each condition. […]

hsp90 = conditions: read-out: kds, DSG-hsp complexes; cited from earlier work
[2] = toxicity of DSG to C127-ΔF508-low cells; type: cell-based, murine; conditions: mouse, read-out: concentrations toxic to the cells
From the text: C127-ΔF508-low (mouse mammary tumor) is a recombinant cell line stably transfected with the cDNA encoding the mutant ΔF508-CFTR (Cheng et al. (1995), supra.; Marshall et al. (1994), J. Biol. Chem. 269: 2987-2995). […] C127-mock is a cell line that has been stably transfected with the backbone of the expression vector used to generate C127-ΔF508-low (Cheng et al. (1995), supra.). LLCPK1 -ΔF508 (pig kidney epithelial) is a recombinant cell line stably expressing low levels of the mutant ΔF508-CFTR protein (Marshall et al., supra.). The details of the generation, characterization and routine propagation of these cell lines has been described (Cheng et al. (1995), supra.; Marshall et al., supra.).
(§1) Cells were treated with up to 100 μg/ml of DSG for up to 72 h. Concentrations of DSG >50 μg/ml were toxic to most of the cell types tested. Since DSG is modified by polyamine oxidase present in fetal bovine serum (Tepper et al., supra.), cells were routinely replenished with fresh medium containing DSG and aminoguanidine every 24 h. As a control in some experiments, C127 cells were also treated with 5 mM sodium butyrate for 24 h. to enhance expression of ΔF508-CFTR (Cheng et al. (1995), supra.). As another control, cells were cultured at 23° C. for 24 to 48 h. to facilitate folding of the mutant ΔF508-CFTR at the ER.

[3] = toxicity of DSG to cells in culture; type: cell-based; conditions: up to 72 h; read-out: concentrations toxic to most of the cell types tested
Method: as §1
CFT1 and JME/CF15 are two immortalized human CF airway epitheliavarill lines which contain the ΔF508 variant (Jefferson et al. (1990), Am. J. Physiol. 259: L496-L505; Yankaskas et al., (1993), Am. J. Physiol. 264: C1219-C1230). Cells were treated with up to 100 μg/ml of DSG for up to 72 h. Concentrations of DSG >50 μg/ml were toxic to most of the cell types tested. Since DSG is modified by polyamine oxidase present in fetal bovine serum (Tepper et al., supra.), cells were routinely replenished with fresh medium containing DSG and aminoguanidine every 24 h. As a control in some experiments, cells were cultured at 23° C. for 24 to 48 h. to facilitate folding of the mutant ΔF508-CFTR at the ER. […]

immune responses = conditions: T-cell dependent assays and models; cited from earlier work
[4] = system: ΔF508-CFTR (JME/CF15 cells); test: SPQ assay, cAMP-stimulated Cl- channel activity, JME/CF15 cells; type: cell-based, human
Method: The cAMP-dependent CFTR Cl^- channel activity was assessed using the halide-sensitive fluorophore 6-methoxy-N-(3-sulfopropyl)-quinolinium (SPQ) essentially as described previously (Cheng et al., (1995), supra.; Marshall et al., supra.). Briefly, the cells were treated with different amounts of DSG for the times specified. At the end of the treatment period, the cells were loaded with SPQ by hypotonic shock for 4 min at room temperature. SPQ fluorescence initially was quenched by incubating the cells for up to 30 min in a NaI buffer (135 mM NaI, 2.4 mM K2 HPO4, 0.6 mM KH2 PO4, 1 mM MgSO4, 1 mM CaSO4, 10 mM dextrose, and 10 mM N-2 hydroxyethylpiperazine-N'2-ethanesulfonic acid, pH 7.4). After measuring the baseline fluorescence (Fo) for 2 min., the NaI solution was replaced with one containing 135 mM NaNO3, and fluorescence was measured for another 16 min. Forskolin (20 μM) and 3-isobutyl-1-methyl-xanthine (IBMX) (100 μM) were added 5 min after the anion substitution to increase intracellular levels of cAMP.
An increase in halide permeability is reflected by a more rapid increase in SPQ fluorescence. It is the rate of change rather than the absolute change in signal that is the important variable in evaluating anion permeability. Differences in absolute levels reflect quantitative differences between groups in SPQ loading, size of cells, or number of cells studied. The data are presented as means± SE of fluorescence at time t (Ft) minus the baseline fluorescence (Fo, the average fluorescence measured in the presence of I^- for 2 min. before ion substitution) and are representative of results obtained under each condition.
For each experiment, between 50 to 100 cells were examined on a given day and studies under each condition were repeated on at least two days. […] There was a broad spectrum in the rate of change in SPQ fluorescence observed with responsive cells. Normally, cells were scored as responsive if they generated a minimum of a […] change in the rate of increase in SPQ fluorescence following stimulation with cAMP agonists. […]

N=C(N)NCCCCCCC(=O)NC(O)C(=O)NCCCCNCCCN (stereo not shown) [DSG, deoxyspergualin]
Kd (hsc70 (hsp70); hsc70, Nadeau et al. (1994), read-out: Kd value for DSG binding to hsc70): 4 µM | Kd (hsc70 (hsp70); hsp70, read-out: kds, DSG-hsp complexes): 4 to 5 µM | affinity for hsps, in words (hsc70 (hsp70); hsps, Nadler et al. (1992), Nadeau et al. (1994)): Pure human hsp90 and hsp70 have equivalent affinities for DSG | cAMP-stimulated Cl- channel activity, in words [1]: marginal; also recorded: Data similar to those described for C127-ΔF508-low cells | Kd (hsp90): 4 to 5 µM | MCC at 72 h [2]: > 50 µg/mL | MCC at 72 h [3]: > 50 µg/mL | immunosuppressive activity, in words (immune responses): potent immunosuppressive activity | cAMP-stimulated Cl- channel activity, in words ([4]; 72 h): more robust than that attained when cells were cultured at low temperature; also recorded: a greater number of responsive cells was observed when 10 μg/ml of DSG was used instead of 5 μg/ml; also recorded: no further significant increment in response was noted at concentrations higher than 10 μg/ml; also recorded: increased cAMP-mediated chloride channel activity; also recorded: comparable to that observed when these cells were cultured at a reduced temperature; also recorded: displayed cAMP-responsive Cl^- channel activity | percentage of mature CFTR produced from CFTRΔF508 upon exposure to reduced temperatures ([4]; FIG. 4): increases upon exposure to reduced temperatures
